Measurements taken from patent US9783532B2, “Molecules having certain pesticidal utilities, and intermediates, compositions, and processes related thereto” (Dow AgroSciences LLC, priority 2013, dated 2017).

What was measured:
Format in all cases: in vivo
[1] = tested on: Green Peach Aphid ("GPA") (Myzus persicae); assay: Bioassay on green peach aphid (GPA), foliar spray on cabbage seedlings; settings: Myzus persicae, foliar, 72 h; 200 ppm spray on infested cabbage seedlings, three days, Abbott corrected % control; read-out: GPA % Control (or Mortality) rating
Protocol: Certain molecules disclosed in this document were tested against GPA using procedures described in the following example. In the reporting of the results, the “GPA Rating Table” was used (See Table Section).
Cabbage seedlings grown in 3-inch pots, with 2-3 small (3-5 cm) true leaves, were used as test substrate. The seedlings were infested with 20-50 GPA (wingless adult and nymph stages) one day prior to chemical application. Four pots with individual seedlings were used for each treatment. Test compounds (2 mg) were dissolved in 2 mL of acetone/methanol (1:1) solvent, forming stock solutions of 1000 ppm test compound. The stock solutions were diluted 5× with 0.025% Tween 20 in water to obtain the solution at 200 ppm test compound. A hand-held aspirator-type sprayer was used for spraying a solution to both sides of […] leaves until runoff. Reference plants (solvent check) were sprayed with the diluent only containing 20% by volume of acetone/methanol (1:1) solvent. Treated plants were held in a holding room for three days at approximately 25° C. and ambient relative humidity (RH) prior to grading. Evaluation was conducted by counting the number of live aphids per plant under a microscope. Percent Control was measured by using Abbott's correction formula (W. S. Abbott, “A Method of Computing the Effectiveness of an Insecticide” J. Econ. Entomol. 18 (1925), pp. 265-267) as follows. Corrected % Control=100*(X−Y)/X • where • X=No. of live aphids on solvent check plants and • Y=No. of live aphids on treated plants

[2] = tested on: Beet Armyworm (Spodoptera exigua) ("BAW"); assay: Bioassay on beet armyworm (BAW), 128-well diet tray assay; settings: 168 h, 50 μg/cm^2 on artificial diet, second instar BAW larvae, 25° C., five to seven days, average of eight wells, read-out: BAW % Control (or Mortality) rating
Procedure, shortened: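 Percent mortality, averaged across eight wells, was read after five to seven days at 25° C. under 14:10 light-dark. Each well held one to five second-instar larvae on artificial diet that had been treated with 50 μg/cm^2 compound in 90:10 acetone-water and dried.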

[3] = tested on: Cabbage Looper (Trichoplusia ni) ("CL"); assay: Bioassay on cabbage looper (CL), 128-well diet tray assay; settings: 168 h, 50 μg/cm^2 on artificial diet, second instar CL larvae, 25° C., five to seven days, average of eight wells, read-out: CL % Control (or Mortality) rating
Procedure, shortened: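 Percent mortality, averaged across eight replicate wells, was read after five to seven days at 25 °C under a 14:10 photoperiod. Each well held one to five second-instar T. ni on diet carrying a dried 50 μg/cm^2 dose applied in acetone-water 90:10.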

[4] = tested on: Yellow Fever Mosquito "YFM" (Aedes aegypti); settings: about 1 day-old larvae, 96-well plate, room temperature, 3 days, mortality
Protocol: Certain molecules disclosed in this document were tested against YFM using procedures described in the following paragraph. In the reporting of the results, the “YFM Rating Table” was used (See Table Section).
Master plates containing 400 μg of a molecule dissolved in 100 μL of dimethyl sulfoxide (DMSO) (equivalent to a 4000 ppm solution) are used. A master plate of assembled molecules contains 15 μL per well. To this plate, 135 μL of a 90:10 wateracetone mixture is added to each well. A robot (Biomek® NXP Laboratory Automation Workstation) is programmed to dispense 15 μL aspirations from the master plate into an empty 96-well shallow plate (“daughter” plate). There are 6 reps (“daughter” plates) created per master. The created daughter plates are then immediately infested with YFM larvae.
The day before plates are to be treated, mosquito eggs are placed in Millipore water containing liver powder to begin hatching (4 g. into 400 mL). After the daughter plates are created using the robot, they are infested with 220 μL of the liver powder/larval mosquito mixture (about 1 day-old larvae). After plates are infested with mosquito larvae, a non-evaporative lid is used to cover the plate to reduce drying. Plates are held at room temperature for 3 days prior to grading. After 3 days, each well is observed and scored based on mortality.

Row | SMILES | mortality at 200 ppm [1] | mortality at 50 µg/cm2 [2] | mortality at 50 µg/cm2 [3] | YFM % Control (or Mortality) rating [4]
1 | CC(C)c1ccccc1N1C(=O)CS/C1=N\C(=O)NCCc1ccc(-c2ncn(-c3ccc(OC(F)(F)F)cc3)n2)cc1 [F1, (Z)-1-(3-(2-isopropylphenyl)-4-oxothiazolidin-2-ylidene)-3-(4-(1-(4-(trifluoromethoxy)phenyl)-1H-1,2,4-triazol-3-yl)phenethyl)urea] | 0% | 50 to 100% | 50 to 100% | 
2 | Cc1ccc(C(C)C)c(N2C(=O)C(C)S/C2=N\C(=O)NCCc2ccc(-c3ncn(-c4ccc(OC(F)(F)F)cc4)n3)cc2)c1 (stereo not drawn) [P57, (Z)-1-(3-(2-isopropyl-5-methylphenyl)-5-methyl-4-oxothiazolidin-2-ylidene)-3-(4-(1-(4-(trifluoromethoxy)phenyl)-1H-1,2,4-triazol-3-yl)phenethyl)urea] |  | 50 to 100% | 50 to 100% | A (80-100)
3 | Cc1ccc(C(C)C)c(-n2c(C)cs/c2=N\C(=O)NCCc2ccc(-c3ncn(-c4ccc(OC(F)(F)F)cc4)n3)cc2)c1 [P65, (Z)-1-(3-(2-isopropyl-5-methylphenyl)-4-methylthiazol-2(3H)-ylidene)-3-(4-(1-(4-(trifluoromethoxy)phenyl)-1H-1,2,4-triazol-3-yl)phenethyl)urea] |  | 50 to 100% | 50 to 100% | A (80-100)
4 | Cc1ccc(C(C)C)c(N2C(=O)CS/C2=N\C(=O)NC(C)C(C)c2ccc(-c3ncn(-c4ccc(OC(F)(F)F)cc4)n3)cc2)c1 (stereo not drawn) [P66, P353, (Z)-1-(3-(2-isopropyl-5-methylphenyl)-4-oxothiazolidin-2-ylidene)-3-(3-(4-(1-(4-(trifluoromethoxy)phenyl)-1H-1,2,4-triazol-3-yl)phenyl)butan-2-yl)urea] |  | 50 to 100% | 50 to 100% | A (80-100)
5 | CCc1cccc(C)c1N1C(=O)CS/C1=N\C(=O)NCCCc1ccc(-c2ncn(-c3ccc(OC(F)(F)F)cc3)n2)cc1 [P101, (Z)-1-(3-(2-ethyl-6-methylphenyl)-4-oxothiazolidin-2-ylidene)-3-(3-(4-(1-(4-(trifluoromethoxy)phenyl)-1H-1,2,4-triazol-3-yl)phenyl)propyl)urea] |  | 0 to 50% | 50 to 100% | D (No activity noticed in this bioassay)
6 | Cc1ccccc1N1C(=O)CS/C1=N\C(=O)NCCCCc1ccc(-c2ncn(-c3ccc(OC(F)(F)F)cc3)n2)cc1 [P144, (Z)-1-(4-oxo-3-(o-tolyl)thiazolidin-2-ylidene)-3-(4-(4-(1-(4-(trifluoromethoxy)phenyl)-1H-1,2,4-triazol-3-yl)phenyl)butyl)urea] |  | 50 to 100% | 50 to 100% | A (80-100)
7 | CC(C)c1ccccc1N1C(=O)CS/C1=N\C(=O)NCCCCc1ccc(-c2ncn(-c3ccc(OC(F)(F)F)cc3)n2)cc1 [P146, P208, (Z)-1-(3-(2-isopropylphenyl)-4-oxothiazolidin-2-ylidene)-3-(4-(4-(1-(4-(trifluoromethoxy)phenyl)-1H-1,2,4-triazol-3-yl)phenyl)butyl)urea] |  | 50 to 100% | 50 to 100% | A (80-100)
8 | CCCc1ccc(C)cc1N1C(=O)CS/C1=N\C(=O)NCCCCc1ccc(-c2ncn(-c3ccc(OC(F)(F)F)cc3)n2)cc1 [P151, P842, (Z)-1-(3-(5-methyl-2-propylphenyl)-4-oxothiazolidin-2-ylidene)-3-(4-(4-(1-(4-(trifluoromethoxy)phenyl)-1H-1,2,4-triazol-3-yl)phenyl)butyl)urea] |  | 50 to 100% | 50 to 100% | A (80-100)
9 | Cc1cccc(C)c1N1C(=O)CS/C1=N\C(=O)NCCCCc1ccc(-c2ncn(-c3ccc(OC(F)(F)F)cc3)n2)cc1 [P152, P1481, (Z)-1-(3-(2,6-dimethylphenyl)-4-oxothiazolidin-2-ylidene)-3-(4-(4-(1-(4-(trifluoromethoxy)phenyl)-1H-1,2,4-triazol-3-yl)phenyl)butyl)urea] |  | 0% | 50 to 100% | A (80-100)
10 | CCc1cccc(C)c1N1C(=O)CS/C1=N\C(=O)NCCCCc1ccc(-c2ncn(-c3ccc(OC(F)(F)F)cc3)n2)cc1 [P153, (Z)-1-(3-(2-ethyl-6-methylphenyl)-4-oxothiazolidin-2-ylidene)-3-(4-(4-(1-(4-(trifluoromethoxy)phenyl)-1H-1,2,4-triazol-3-yl)phenyl)butyl)urea] |  | 0% | 50 to 100% | D (No activity noticed in this bioassay)
11 | Cc1ccc(N2C(=O)CS/C2=N\C(=O)NCCCCc2ccc(-c3ncn(-c4ccc(OC(F)(F)F)cc4)n3)cc2)c(C(C)C)c1 [P154, (Z)-1-(3-(2-isopropyl-4-methylphenyl)-4-oxothiazolidin-2-ylidene)-3-(4-(4-(1-(4-(trifluoromethoxy)phenyl)-1H-1,2,4-triazol-3-yl)phenyl)butyl)urea] |  | 50 to 100% | 50 to 100% | B (More than 0-Less than 80)
12 | CC(C)c1cc(F)ccc1N1C(=O)CS/C1=N\C(=O)NCCCCc1ccc(-c2ncn(-c3ccc(OC(F)(F)F)cc3)n2)cc1 [P155. P1162, (Z)-1-(3-(4-fluoro-2-isopropylphenyl)-4-oxothiazolidin-2-ylidene)-3-(4-(4-(1-(4-(trifluoromethoxy)phenyl)-1H-1,2,4-triazol-3-yl)phenyl)butyl)urea] |  | 50 to 100% | 50 to 100% | A (80-100)
13 | COc1ccc(C(C)C)c(N2C(=O)CS/C2=N\C(=O)NCCCCc2ccc(-c3ncn(-c4ccc(OC(F)(F)F)cc4)n3)cc2)c1 [P156, P682, (Z)-1-(3-(2-isopropyl-5-methoxyphenyl)-4-oxothiazolidin-2-ylidene)-3-(4-(4-(1-(4-(trifluoromethoxy)phenyl)-1H-1,2,4-triazol-3-yl)phenyl)butyl)urea] |  | 50 to 100% | 50 to 100% | A (80-100)
14 | Cc1ccc(C(C)C)c(N2C(=O)CS/C2=N\C(=O)NCCC#Cc2ccc(-c3ncn(-c4ccc(OC(F)(F)F)cc4)n3)cc2)c1 [P160, (Z)-1-(3-(2-isopropyl-5-methylphenyl)-4-oxothiazolidin-2-ylidene)-3-(4-(4-(1-(4-(trifluoromethoxy)phenyl)-1H-1,2,4-triazol-3-yl)phenyl)but-3-yn-1-yl)urea] |  | 50 to 100% | 50 to 100% | B (More than 0-Less than 80)
15 | CC(C)c1ccccc1N1C(=O)CS/C1=N\C(=O)NCC(C)c1ccc(-c2ncn(-c3ccc(OC(F)(F)F)cc3)n2)cc1 (stereo not drawn) [P205, (Z)-1-(3-(2-isopropylphenyl)-4-oxothiazolidin-2-ylidene)-3-(2-(4-(1-(4-(trifluoromethoxy)phenyl)-1H-1,2,4-triazol-3-yl)phenyl)propyl)urea] |  | 50 to 100% | 50 to 100% | A (80-100)
16 | COc1ccc(C(C)C)c(N2C(=O)CS/C2=N\C(=O)NCC(C)c2ccc(-c3ncn(-c4ccc(OC(F)(F)F)cc4)n3)cc2)c1 (stereo not drawn) [P679, (Z)-1-(3-(2-isopropyl-5-methoxyphenyl)-4-oxothiazolidin-2-ylidene)-3-(2-(4-(1-(4-(trifluoromethoxy)phenyl)-1H-1,2,4-triazol-3-yl)phenyl)propyl)urea] |  | 50 to 100% | 50 to 100% | A (80-100)
